{"source": "patent US7618816B2", "about": "“Metal-binding therapeutic peptides” (Ontherix, Inc., priority 2005, dated 2009)", "assay_in_all_cases": "Uptake of SA-HRP::MBD peptide complexes", "type_in_all_cases": "cell-based, human", "key": {"[1]": {"system": "231", "procedure": "(§1) HEK293 kidney cell line and 54 tumor cell lines obtained from the National Cancer Institute and passaged in RPMI1640 cell culture medium supplemented with 10% fetal bovine serum and 10 uM FeCl2. Uptake of streptavidin-horseradish peroxidase (SA-HRP) conjugate and of various SA-HRP::MBD peptide complexes was determined as described (Singh et al. J Biol Chem. 279 (1):477-87 [2004]) using biotinylated MBD9 ([…]) (SEQ ID NO: 10) and MBD21 ([…]) (SEQ ID NO: 4) peptides and SA-HRP. Nuclear and cytoplasmic localization of these proteins was also determined in each case. […] In order to establish the underlying molecular mechanism for this variability, we cross-linked MBD21 peptide to the following cell surface markers at 4 degrees Celsius as previously described (Singh et al. J Biol Chem. 279 (1):477-87 [2004]): transferrin receptor 1, caveolin 1, PCNA, integrins alpha v, 2, 5 and 6, integrins beta 1, 3 and 5. […] Based on the strength of these correlations, it was possible to derive crude predictive formulae for MBD-mediated uptake based on the rate of cross-linking to surface markers. Such predictive formulas could form the basis for a diagnostic procedure to select appropriate targets for MBD-based therapies."}, "[2]": {"system": "786-O", "procedure": "as §1"}, "[3]": {"system": "A2780", "procedure": "as §1"}, "[4]": {"system": "A498", "procedure": "as §1"}, "[5]": {"system": "A549", "procedure": "as §1"}, "[6]": {"system": "A704", "procedure": "as §1"}, "[7]": {"system": "ACHN", "procedure": "as §1"}, "[8]": {"system": "BT-549", "procedure": "as §1"}, "[9]": {"system": "CAKI-1", "procedure": "as §1"}, "[10]": {"system": "COLO 205", "procedure": "as §1"}, "[11]": {"system": "HCC 2998", "procedure": "as §1"}, "[12]": {"system": "HCT-116", "procedure": "as §1"}, "[13]": {"system": "HOP 18", "procedure": "as §1"}, "[14]": {"system": "HOP 62", "procedure": "as §1"}, "[15]": {"system": "HOP 92", "procedure": "as §1"}, "[16]": {"system": "HT-29", "procedure": "as §1"}, "[17]": {"system": "IGR-OV1", "procedure": "as §1"}, "[18]": {"system": "KM12", "procedure": "as §1"}, "[19]": {"system": "LOVO", "procedure": "as §1"}, "[20]": {"system": "Lewis Lung", "procedure": "as §1"}, "[21]": {"system": "MX-1", "procedure": "as §1"}, "[22]": {"system": "NCI-H23", "procedure": "as §1"}, "[23]": {"system": "NCI-H522", "procedure": "as §1"}, "[24]": {"system": "OVCAR-3", "procedure": "as §1"}, "[25]": {"system": "OVCAR-5", "procedure": "as §1"}, "[26]": {"system": "OVCAR-8", "procedure": "as §1"}, "[27]": {"system": "PC-3", "procedure": "as §1"}, "[28]": {"system": "SK-0V-3", "procedure": "as §1"}, "[29]": {"system": "SN12C", "procedure": "as §1"}, "[30]": {"system": "SW-620", "procedure": "as §1"}, "[31]": {"system": "TK-10", "procedure": "as §1"}, "[32]": {"system": "WIDR", "procedure": "as §1"}}}
{"sequence": "KKGFYKKKKQCRPSKGRKRGFCWNGRK [MBD9]", "values": [{"measurement": "SA-HRP uptake, Cyt.", "setting": "[1]; 231, cytoplasmic", "value": 9.6, "unit": "ng"}, {"measurement": "SA-HRP uptake, Nuc.", "setting": "[1]; 231, nuclear", "value": 2.6, "unit": "ng"}, {"measurement": "SA-HRP uptake, Cyt.", "setting": "[2]; cytoplasmic", "value": 2.9, "unit": "ng"}, {"measurement": "SA-HRP uptake, Nuc.", "setting": "[2]; nuclear", "value": 3.9, "unit": "ng"}, {"measurement": "SA-HRP uptake, Cyt.", "setting": "[3]; A2780, cytoplasmic", "value": 20.7, "unit": "ng"}, {"measurement": "SA-HRP uptake, Nuc.", "setting": "[3]; A2780, nuclear", "value": 2.8, "unit": "ng"}, {"measurement": "SA-HRP uptake, Cyt.", "setting": "[4]; A498, cytoplasmic", "value": 28.5, "unit": "ng"}, {"measurement": "SA-HRP uptake, Nuc.", "setting": "[4]; A498, nuclear", "value": 12.4, "unit": "ng"}, {"measurement": "SA-HRP uptake, Cyt.", "setting": "[5]; A549, cytoplasmic", "value": 9.6, "unit": "ng"}, {"measurement": "SA-HRP uptake, Nuc.", "setting": "[5]; A549, nuclear", "value": 3.5, "unit": "ng"}, {"measurement": "SA-HRP uptake, Cyt.", "setting": "[6]; A704, cytoplasmic", "value": 10.9, "unit": "ng"}, {"measurement": "SA-HRP uptake, Nuc.", "setting": "[6]; A704, nuclear", "value": 1.8, "unit": "ng"}, {"measurement": "SA-HRP uptake, Cyt.", "setting": "[7]; cytoplasmic", "value": 9.6, "unit": "ng"}, {"measurement": "SA-HRP uptake, Nuc.", "setting": "[7]; nuclear", "value": 2.9, "unit": "ng"}, {"measurement": "SA-HRP uptake, Cyt.", "setting": "[8]; BT-549, cytoplasmic", "value": 7.2, "unit": "ng"}, {"measurement": "SA-HRP uptake, Nuc.", "setting": "[8]; BT-549, nuclear", "value": 2.1, "unit": "ng"}, {"measurement": "SA-HRP uptake, Cyt.", "setting": "[9]; CAKI-1, cytoplasmic", "value": 7.4, "unit": "ng"}, {"measurement": "SA-HRP uptake, Nuc.", "setting": "[9]; CAKI-1, nuclear", "value": 1.8, "unit": "ng"}, {"measurement": "SA-HRP uptake, Cyt.", "setting": "[10]; COLO 205, cytoplasmic", "value": 2.9, "unit": "ng"}, {"measurement": "SA-HRP uptake, Nuc.", "setting": "[10]; COLO 205, nuclear", "value": 0.9, "unit": "ng"}, {"measurement": "SA-HRP uptake, Cyt.", "setting": "[11]; HCC 2998, cytoplasmic", "value": 4.6, "unit": "ng"}, {"measurement": "SA-HRP uptake, Nuc.", "setting": "[11]; HCC 2998, nuclear", "value": 3.7, "unit": "ng"}, {"measurement": "SA-HRP uptake, Cyt.", "setting": "[12]; HCT-116, cytoplasmic", "value": 14.1, "unit": "ng"}, {"measurement": "SA-HRP uptake, Nuc.", "setting": "[12]; HCT-116, nuclear", "value": 4.4, "unit": "ng"}, {"measurement": "SA-HRP uptake, Cyt.", "setting": "[13]; HOP 18, cytoplasmic", "value": 16.6, "unit": "ng"}, {"measurement": "SA-HRP uptake, Nuc.", "setting": "[13]; HOP 18, nuclear", "value": 8.1, "unit": "ng"}, {"measurement": "SA-HRP uptake, Cyt.", "setting": "[14]; HOP 62, cytoplasmic", "value": 12.0, "unit": "ng"}, {"measurement": "SA-HRP uptake, Nuc.", "setting": "[14]; HOP 62, nuclear", "value": 0.9, "unit": "ng"}, {"measurement": "SA-HRP uptake, Cyt.", "setting": "[15]; HOP 92, cytoplasmic", "value": 2.5, "unit": "ng"}, {"measurement": "SA-HRP uptake, Nuc.", "setting": "[15]; HOP 92, nuclear", "value": 1.6, "unit": "ng"}, {"measurement": "SA-HRP uptake, Cyt.", "setting": "[16]; HT-29, cytoplasmic", "value": 6.1, "unit": "ng"}, {"measurement": "SA-HRP uptake, Nuc.", "setting": "[16]; HT-29, nuclear", "value": 7.7, "unit": "ng"}, {"measurement": "SA-HRP uptake, Cyt.", "setting": "[17]; IGR-OV1, cytoplasmic", "value": 7.0, "unit": "ng"}, {"measurement": "SA-HRP uptake, Nuc.", "setting": "[17]; IGR-OV1, nuclear", "value": 2.6, "unit": "ng"}, {"measurement": "SA-HRP uptake, Cyt.", "setting": "[18]; KM12, cytoplasmic", "value": 3.6, "unit": "ng"}, {"measurement": "SA-HRP uptake, Nuc.", "setting": "[18]; KM12, nuclear", "value": 1.0, "unit": "ng"}, {"measurement": "SA-HRP uptake, Cyt.", "setting": "[19]; cytoplasmic", "value": 12.6, "unit": "ng"}, {"measurement": "SA-HRP uptake, Nuc.", "setting": "[19]; nuclear", "value": 5.4, "unit": "ng"}, {"measurement": "SA-HRP uptake, Cyt.", "setting": "[20]; cytoplasmic", "value": 8.6, "unit": "ng"}, {"measurement": "SA-HRP uptake, Nuc.", "setting": "[20]; nuclear", "value": 7.2, "unit": "ng"}, {"measurement": "SA-HRP uptake, Cyt.", "setting": "[21]; MX-1, cytoplasmic", "value": 10.8, "unit": "ng"}, {"measurement": "SA-HRP uptake, Nuc.", "setting": "[21]; MX-1, nuclear", "value": 3.1, "unit": "ng"}, {"measurement": "SA-HRP uptake, Cyt.", "setting": "[22]; NCI-H23, cytoplasmic", "value": 10.8, "unit": "ng"}, {"measurement": "SA-HRP uptake, Nuc.", "setting": "[22]; NCI-H23, nuclear", "value": 6.6, "unit": "ng"}, {"measurement": "SA-HRP uptake, Cyt.", "setting": "[23]; NCI-H522, cytoplasmic", "value": 9.1, "unit": "ng"}, {"measurement": "SA-HRP uptake, Nuc.", "setting": "[23]; NCI-H522, nuclear", "value": 3.7, "unit": "ng"}, {"measurement": "SA-HRP uptake, Cyt.", "setting": "[24]; OVCAR-3, cytoplasmic", "value": 2.4, "unit": "ng"}, {"measurement": "SA-HRP uptake, Nuc.", "setting": "[24]; OVCAR-3, nuclear", "value": 4.6, "unit": "ng"}, {"measurement": "SA-HRP uptake, Cyt.", "setting": "[25]; OVCAR-5, cytoplasmic", "value": 2.7, "unit": "ng"}, {"measurement": "SA-HRP uptake, Nuc.", "setting": "[25]; OVCAR-5, nuclear", "value": 1.2, "unit": "ng"}, {"measurement": "SA-HRP uptake, Cyt.", "setting": "[26]; OVCAR-8, cytoplasmic", "value": 3.9, "unit": "ng"}, {"measurement": "SA-HRP uptake, Nuc.", "setting": "[26]; OVCAR-8, nuclear", "value": 5.0, "unit": "ng"}, {"measurement": "SA-HRP uptake, Cyt.", "setting": "[27]; PC-3, cytoplasmic", "value": 23.2, "unit": "ng"}, {"measurement": "SA-HRP uptake, Nuc.", "setting": "[27]; PC-3, nuclear", "value": 8.5, "unit": "ng"}, {"measurement": "SA-HRP uptake, Cyt.", "setting": "[28]; SK-0V-3, cytoplasmic", "value": 2.0, "unit": "ng"}, {"measurement": "SA-HRP uptake, Nuc.", "setting": "[28]; SK-0V-3, nuclear", "value": 0.4, "unit": "ng"}, {"measurement": "SA-HRP uptake, Cyt.", "setting": "[29]; cytoplasmic", "value": 10.6, "unit": "ng"}, {"measurement": "SA-HRP uptake, Nuc.", "setting": "[29]; nuclear", "value": 3.5, "unit": "ng"}, {"measurement": "SA-HRP uptake, Cyt.", "setting": "[30]; SW-620, cytoplasmic", "value": 3.2, "unit": "ng"}, {"measurement": "SA-HRP uptake, Nuc.", "setting": "[30]; SW-620, nuclear", "value": 0.7, "unit": "ng"}, {"measurement": "SA-HRP uptake, Cyt.", "setting": "[31]; TK-10, cytoplasmic", "value": 4.0, "unit": "ng"}, {"measurement": "SA-HRP uptake, Nuc.", "setting": "[31]; TK-10, nuclear", "value": 1.3, "unit": "ng"}, {"measurement": "SA-HRP uptake, Cyt.", "setting": "[32]; cytoplasmic", "value": 3.4, "unit": "ng"}, {"measurement": "SA-HRP uptake, Nuc.", "setting": "[32]; nuclear", "value": 0.7, "unit": "ng"}]}
